Experimental data reported in patent US20190367871A1, “EMBRYONIC STEM CELL MEDIA AND CULTURE” (YISSUM RESEARCH DEVELOPMENT COMPANY OF THE HEBREW …, priority 2018, published 2019).
Blank lines part the entries; values can stand above or below the compound they belong to.

Legend:
diploid hESCs = assay: Growth curve of hESCs (CellTiter-Glo luminescent cell viability assay); assay type: cell-based, human
Experimental: All genes were targeted with commercial pooled siRNAs to increase the specificity of the knockdown. esiRNAs for SALL4, DSCC1 and SEPHS1 and the control esiRNA for Renilla luciferase were obtained from Sigma (cat. nos. EHU037061, EHU021301, EHU107861 and EHURLUC, respectively). siRNA for VRTN was obtained from GE Healthcare Dharmacon (cat. no. L-021159-02-0005). Briefly, 30-50 nM siRNA was mixed with 0.14 μl of DharmaFECT 1 transfection reagent (GE Healthcare Dharmacon) in Opti-MEM I reduced serum medium (Thermo Fisher Scientific) for 30 min. The transfection mix was added on a matrigel-coated well of a 96-well plate and 3,000 hESCs were plated on the transfection mix in the presence of mTeSR 1 medium. The cells were subsequently grown for 3-4 days and the mTeSR 1 medium was replaced every 24 h. Cell viability was assessed by a CellTiter-Glo luminescent cell viability assay according to the manufacturer's instructions (Promega). Luminescence reads for the target genes were normalized to control siRNA conditions, and the replicate experiments were averaged. For growth curves of IGF1-treated and control hESCs, cells were plated in matrigel-coated wells with equal numbers and their density was measured for four consecutive days with CellTiter-Glo luminescent cell viability assay (Promega). The density measured one day after plating was considered Day 0, after which cells were switched to MEF-conditioned medium containing 100 ng ml^−1 IGF1. Every day was normalized to Day 0 and replicate experiments were averaged.

[1] = test system: human foreskin fibroblasts; assay: Growth of fibroblasts under mTOR inhibitor treatment (CellTiter-Glo); assay type: cell-based; settings: two days of treatment, low nanomolar concentrations
[2] = target: Bax (BCL2 associated X, apoptosis regulator) (human) (UniProt Q07812); assay: cell-based or functional assay
hESCs [3] = assay: Effect of Bax inhibition on hESC growth (CellTiter-Glo luminescence); assay type: cell-based, human; settings: 100 or 200 uM, after 24 hours, vs 0 uM
Experimental: Next, we examined the effect of Bax inhibition on hESC growth. hESCs were treated with either 0, 100, or 200 uM of BAX-inhibiting peptide V5 (BIP-V5, Sigma). At time point zero when the peptide was added CellTiter-Glo reagent was also added to the cells and luminescence was measured with a plate reader. Bax inhibition increased the relative growth of the hESCs by 15-25% after 24 hours (FIG. 13).

hESCs [4] = assay: Apoptosis assay (Annexin V / PI flow cytometry); assay type: cell-based, human; settings: IGF1-treated vs control diploid hESCs
Text: hESCs were trypsinized gently with TrypLE Select. Apoptotic cells were labelled with Annexin V and propidium iodide (PI) using the MEBCYTO Apoptosis Kit according to the manufacturer's instructions (MBL). Labelled cells were filtered through a 70 μm cell strainer and analysed in BD FACSAria III for the proportion of annexin V-positive cells.

hESCs [5] = assay: Cell-cycle profile by PI staining and flow cytometry; assay type: cell-based, human; settings: IGF1-treated vs control diploid hESCs
Experimental: PI staining was performed as described in Sagi, I., Egli, D. & Benvenisty, N. Identification and propagation of haploid human pluripotent stem cells. Nat. Protoc. 11, 2274-2286 (2016). Briefly, hESCs were trypsinized with TrypLE Select and fixed with cold methanol (4° C.). Fixed cells were treated with 200 μg ml^−1 RNase A (Sigma) for 30 min and stained with 50 μg ml^−1 PI for 5 min. Stained cells were filtered through a 70 μm cell strainer and analysed in BD FACSAria III for their cell-cycle profile.

hESCs [6] = assay: TRA-1-60 immunocytochemistry (flow cytometry of TRA-1-60-positive pluripotent cells); assay type: cell-based, human; settings: IGF1-treated vs control diploid hESCs
Experimental: hESCs were trypsinized with TrypLE Select. Cells were collected in cold PBS containing 10% KSR, centrifuged at 300 g for 5 min and resuspended in 200 μl PBS containing 10% KSR. PE-conjugated mouse anti-human TRA-1-60 antibody (1:40, BD Biosciences) was then incubated with the cells for 30 min at 4° C. Cells were washed with PBS containing 10% KSR twice, centrifuged at 300 g at 4° C. and resuspended in PBS with 10% KSR. Immunolabelled cells were filtered through a 70 μm cell strainer and analysed in BD FACSAria III for the proportion of TRA-1-60-positive cells.

Sequence of UniProt Q07812 (Q07812 whole entry): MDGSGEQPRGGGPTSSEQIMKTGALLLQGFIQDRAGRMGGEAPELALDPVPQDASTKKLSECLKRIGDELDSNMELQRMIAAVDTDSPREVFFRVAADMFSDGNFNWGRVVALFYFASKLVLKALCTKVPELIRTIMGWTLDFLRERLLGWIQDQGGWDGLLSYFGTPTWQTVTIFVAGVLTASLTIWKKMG

Compound: CCC(=O)N1CCN(c2ccc(-n3c(=O)ccc4cnc5ccc(-c6cnc7ccccc7c6)cc5c43)cc2C(F)(F)F)CC1 [Torin 1, reference compound]
growth and survival of hESCs (diploid hESCs; two days of treatment, low nanomolar concentrations): completely abolished
growth inhibition of fibroblasts [1]: up to 60%

relative growth of hESCs (CellTiter-Glo luminescence) after 24 hours [2]: 15 to 25%
Compound: BAX-inhibiting peptide V5

Compound: BAX-inhibiting peptide V5 [BIP-V5]
increase in relative growth of hESCs (hESCs [3]): 15-25%

Compound: insulin like growth factor 1 [IGF1]
growth rate of diploid hESCs (diploid hESCs; IGF1 100 ng ml^-1 in MEF-conditioned medium, especially low levels of KSR, vs untreated control): significantly increased the growth rate
rescue of rapamycin growth-inhibition of hESCs (diploid hESCs; rapamycin + IGF1 vs rapamycin alone): failed to rescue
percentage of apoptotic hESCs (hESCs [4]): significantly decreases the percentage of apoptotic hESCs
cell-cycle (cells in G2/M phase) (hESCs [5]): not affecting
differentiation dynamics (TRA-1-60+ pluripotent cells) (hESCs [6]): not affecting
